Entries after “also recorded” stand apart in the source; their conditions may differ.
Key:
[1] = tested on: mice given lethal TBI and T cell depleted BM (allo-HCT); assay: Thymic reconstitution after T cell-depleted allogeneic HCT; type: in vivo; settings: BALB.B recipients, 900 cGy, TC-G 1008 20 mg/mouse/day day 0-8, 10 and 12, day 14
[2] = tested on: C57BL/6 mice given sublethal TBI; assay: Thymic regeneration after sublethal total body irradiation (SL-TBI, 550 cGy); type: in vivo, mouse; settings: TC-G 1008 20 mg/mouse/day by guided feeding day 0 to day 10, 550 cGy TBI, day 10
Source text: FIGS. 4A-4G. […] (4A, 4B) 6-8 week-old female C57BL/6 mice were fed a normal or ZD diet for 21 days at which point mice were given a sublethal dose of total body irradiation (TBI, 550 cGy). (4A) Total thymic cellularity at days 7 and 14 after TBI (n=10/treatment/timepoint across two independent experiments). (4B) Total number of CD45-EpCAM^+MHCII^+UEA1^loLy51^hi (cTECs) and CD45^− EpCAM^+MHCII^+UEA1^hi Ly51^lo (mTECs) at days 7 and 14 after TBI (n=10/treatment/timepoint across two independent experiments). (4C) 6-12 week-old female BALB.B mice were fed with normal or ZD diet for 21 days, at which point mice were given a lethal dose of TBI (900cGy) and 10×10^6 T cell-depleted bone marrow (BM) cells from 6-8 week-old C57BL/6. One cohort also received 2×10^6 T cells to induce graft versus host disease (GVHD); thymic cellularity was quantified on day 14 after allogeneic hematopoietic stem cell transplant (allo-HCT, n=5-6/group). (4D) 6-8 week-old female C57BL/6 mice were fed with normal or ZD diet for 21 days at which point mice were given 550 cGy TBI and total thymus cellularity quantified on day 14. […] (4E) Total thymic cellularity. (4F) Total number of cTECs and mTECs. (4G) Total number of Ki-67+ thymic endothelial cells (TECs). […]

[3] = tested on: Male C57BL/6 mice aged 2 mo, 12 mo or 19 mo; assay: Thymus cellularity in mice aged 2, 12 or 19 months; type: in vivo, mouse; settings: TC-G 1008 20 mg/kg/day for 5 days, day 7, versus untreated controls
Method: FIG. 14. Male C57BL/6 mice aged 2 mo, 12 mo or 19 mo were given the GPR39 agonist TC-G 1008 (20 mg/kg/day) for 5 days. Thymus cellularity was measured at day 7.

GPR39 = biological target: T1, GPR39 (Mus musculus, UniProt Q5U431); assay: Ca2+ live imaging of ECs with Fluo3-AM; type: cell-based; settings: 20 mins post stimulation, AUC
T1 construct: endogenous in cells; host or cells: thymic endothelial cells (ECs / exECs)
T1 sequence (Q5U431 1-456): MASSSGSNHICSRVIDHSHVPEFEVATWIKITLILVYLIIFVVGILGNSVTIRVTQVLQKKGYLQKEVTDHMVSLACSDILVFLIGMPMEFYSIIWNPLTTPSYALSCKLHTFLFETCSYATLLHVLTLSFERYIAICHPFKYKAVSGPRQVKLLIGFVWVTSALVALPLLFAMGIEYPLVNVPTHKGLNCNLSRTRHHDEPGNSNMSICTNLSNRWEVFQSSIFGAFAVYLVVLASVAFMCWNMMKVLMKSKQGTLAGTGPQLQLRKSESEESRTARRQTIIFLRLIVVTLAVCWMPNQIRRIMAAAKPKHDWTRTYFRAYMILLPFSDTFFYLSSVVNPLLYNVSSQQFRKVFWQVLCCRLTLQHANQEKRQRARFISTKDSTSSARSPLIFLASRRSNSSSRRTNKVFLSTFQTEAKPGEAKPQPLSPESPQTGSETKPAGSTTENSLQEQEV
Source text: FIGS. 20A-20D. […] (20D) GPR39 cell surface levels in thymocytes and TECs at d0. Graphs represent mean+/−SEM.

Bmp4 in exECs = assay: Bmp4 expression by qPCR in exECs; type: cell-based, mouse; settings: TC-G 1008 25 μM, 24 hours, compared with ZnSO4 100 μM

CNc1nc(NCc2ccc(NS(C)(=O)=O)cc2Cl)cc(-c2ccccn2)n1 [TC-G 1008, N-[3-chloro-4-[[[2-(methylamino)-6-pyridin-2-ylpyrimidin-4-yl]amino]methyl]phenyl]methanesulfonamide] was tested, and the thymic function [1] was “significantly improved thymic function”, the “thymic function (thymus cellularity)” value [2] was “significantly improved thymic function” and the thymus cellularity [3] was “significantly improved thymus cellularity”. For the same compound, the “Ca2+ influx” value (GPR39) was “incudes Ca2+ influx” and the Bmp4 expression (Bmp4 in exECs) was “induced expression of Bmp4, greater than Zn alone; also recorded: induces expression of BMP4”.

From patent US20230263800A1, “COMPOSITIONS AND METHODS TO PROMOTE THYMIC FUNCTION” (Fred Hutchinson Cancer Center, priority 2020, published 2023)
